The source of these data is EP4745134A1 (Jiangsu Yahong Meditech Co., Ltd., priority 2023, dated 2025).

Usually IC50 stands for the midpoint of a concentration-inhibition curve.

Structures are written as SMILES.

For one test, the system named is HCT116 MTAP KO cells. Put plainly: Inhibitory activity against cell proliferation (CellTiter Glo, 6 days), HCT116 MTAP KO. Format: cell-based. The settings on record: for IC50: Homo sapiens, HCT-116, 144 h, HCT116 MTAP KO cells, 6 days, CellTiter Glo, read-out: HCT116 MTAP KO IC50; for Selectivity HCT 116-WT/ HCT116 MTAP KO: ratio of IC50 HCT116-WT / HCT116 MTAP KO. An outline of the steps: (§1)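 Cells were seeded at 250 per well in McCoy's 5A with 10% FBS and left overnight at 37°C, 5% CO2. Compounds were added as 8-point, 4-fold dilutions from 10000 nM, with DMSO-only controls, for 6 days. IC50 values came from CellTiter Glo luminescence.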
(In general: ATP-based viability assays read luminescence as a measure of living cells.)

Another test concerns HCT116-WT cells. Nature of the test: Inhibitory activity against cell proliferation (CellTiter Glo, 6 days), HCT116-WT. The format is cell-based. The settings on record: 144 h, HCT116-WT cells, 6 days, CellTiter Glo; read-out: HCT116-WT IC50. An outline of the steps:
as §1

`Cc1cc2nc(N)c3cnn(C)c3c2cc1C(=O)N1CCCN1c1ncc(-c2cnn(C)c2)cc1F` [Example 471, (4-amino-1,7-dimethyl-1H-pyrazolo[4,3-c]quinolin-8-yl)(2-(3-fluoro-5-(1-methyl-1H-pyrazol-4-yl)pyridin-2-yl)pyrazolidin-1-yl)methanone]: in the test with HCT116 MTAP KO cells, the 50% inhibitory concentration (IC50) was found to be 97 nM and the “Selectivity HCT 116-WT/ HCT116 MTAP KO” value was found to be 60.37. Further, in the test with HCT116-WT cells, the IC50 came out at 5860 nM.
Consider `CN(c1ncccn1)N(Cc1ccc(C(F)(F)F)cn1)C(=O)c1ccc2nc(N)c(Cl)cc2c1` [Example 105, 2-amino-3-chloro-N'-methyl-N'-(pyrimidin-2-yl)-N-((5-(trifluoromethyl)pyridin-2-yl)methyl)quinoline-6-carbohydrazide], for which, in the test with HCT116 MTAP KO cells, the IC50 was 202 nM and the “Selectivity HCT 116-WT/ HCT116 MTAP KO” value is 19.56. For the same compound, the IC50 in the test with HCT116-WT cells turned out to be 3950 nM.
For the compound `Cc1cc2cc(C(=O)N(Cc3ccc(-c4nnn(C)n4)cn3)N(C)c3ncccn3)ccc2nc1N` [Example 231, 2-amino-N',3-dimethyl-N-((5-(2-methyl-2H-tetrazol-5-yl)pyridin-2-yl)methyl)-N'-(pyrimidin-2-yl)quinoline-6-carbohydrazide], in the test on HCT116 MTAP KO cells, the IC50 was 212 nM and the “Selectivity HCT 116-WT/ HCT116 MTAP KO” value stood at 12.71. The IC50 in the test with HCT116-WT cells came out at 2700 nM.
As for `Cc1cc2cc(C(=O)N(Cc3ccc(-c4cnn(C(F)(F)F)c4)cn3)N(C)c3ncccc3F)ccc2nc1N` [Example 170, 2-amino-N'-(3-fluoropyridin-2-yl)-N ',3-dimethyl-N-((5-(1-(trifluoromethyl)-1 H-pyrazol-4-yl)pyridin-2-yl)methyl)quin oline-6-carbohydrazide], the half-inhibitory concentration (IC50) turned out to be 35 nM in the test on HCT116 MTAP KO cells and 640 nM in the test on HCT116-WT cells. The “Selectivity HCT 116-WT/ HCT116 MTAP KO” value with HCT116 MTAP KO cells came out at 18.29.
In the same order, the values of `Cc1cc2cc(C(=O)N(Cc3ccc4sc(C5CCN(C)CC5)nc4c3)N(C)c3ncccn3)ccc2nc1N` [Example 219] are 216 nM, 3140 nM and 14.53.
In the same order, the values of `[2H]C([2H])([2H])c1cc2cc(C(=O)N(Cc3ccc(C(F)(F)F)cn3)N(C)c3ncccc3F)ccc2nc1N` [Example 309, 2-amino-N'-(3-fluoropyridin-2-yl)-N'-methyl-3-(methyl-d3)-N-((5-(trifluoromethyl)pyridin-2-yl)methyl)quinoline-6-carbohydrazide] are 30 nM, 466 nM and 15.53.
In the same order, the values of `Cc1cc2cc(C(=O)N(Cc3ccc(-c4cc[nH]c(=O)c4)cn3)N(C)c3ncccn3)ccc2nc1N` [Example 138, 2-amino-N',3-dimethyl-N-((2'-oxo-1',2'-dihydro-[3,4'-bipyridine]-6-yl)methyl)-N'-(pyrimidin-2-yl)quinoline-6-carbohydrazide] are 290 nM, 3420 nM and 11.79.
With `Cc1cc2cc(C(=O)N(Cc3ccc(-c4ccc(N5CCNCC5)nc4)cn3)N(C)c3ncccn3)ccc2nc1N` [Example 207, 2-amino-N',3-dimethyl-N-((6'-(piperazin-1-yl)-[3,3'-bipyridine]-6-yl)methyl)-N'-(pyrimidin-2-yl)quinoline-6-carbohydrazide], in the test with HCT116 MTAP KO cells, the IC50 was found to be 26 nM and the “Selectivity HCT 116-WT/ HCT116 MTAP KO” value is 18.77. Besides, the IC50 in the test with HCT116-WT cells was found to be 488 nM.
In the same order, the values of `Cc1cc2nc(N)c3cnn(C)c3c2cc1C(=O)N1CC(C)CN1c1ncc(Cl)cc1F` (stereo not drawn) [Example 394, (4-amino-1,7-dimethyl-1H-pyrazolo[4,3-c]quinolin-8-yl)(2-(5-chloro-3-fluoropyridin-2-yl)-4-methylpyrazolidin-1-yl)metha none] are 16 nM, 44.81 and 717 nM.
